Reference: ChEMBL document CHEMBL1149784, “Discovery of a new anilino-3H-pyrrolo[3,2-f]quinoline derivative as potential anti-cancer agent” (Eur J Med Chem, 2008)
The source made the active and inactive calls. The calls are words filed in the database; no cut-off is given here.

Columns and labels:
[1] = system: OVCAR-3; assay: Cell cycle arrest in human OVCAR-3 cells assessed as accumulation at G2/M phase at 10 uM by flow cytometry; format: functional
[2] = system: OVCAR-3; assay: Cell cycle arrest in human OVCAR-3 cells assessed as accumulation at subG0 phase at 5 uM by flow cytometry; format: functional
[3] = system: OVCAR-3; assay: Cell cycle arrest in human OVCAR-3 cells assessed as accumulation at G2/M phase at 1 uM by flow cytometry; format: functional
[4] = target: DNA topoisomerase 2-alpha (Homo sapiens) (UniProt P11388); assay: Inhibition of human recombinant topoisomerase 2 assessed as relaxation of supercoiled pBR322 DNA
[5] = system: HL-60; assay: Growth inhibition of human HL60 cells after 72 hrs by trypan blue assay; format: functional, cell-based; conditions: HL-60, 72 h
[6] = system: Salmonidae; assay: Binding affinity to Salmon testes DNA assessed as drug-DNA complex formation by linear flow dichroism method
[7] = system: OVCAR-3; assay: Cell cycle arrest in human OVCAR-3 cells assessed as accumulation at G2/M phase at 5 uM by flow cytometry; format: functional
[8] = Growth inhibition of human JR8 cells after 72 hrs by trypan blue assay; format: functional, cell-based; conditions: JR8, 72 h
[9] = system: OVCAR-3; assay: Cell cycle arrest in human OVCAR-3 cells assessed as accumulation at S phase at 5 uM by flow cytometry; format: functional
[10] = system: OVCAR-3; assay: Cell cycle arrest in human OVCAR-3 cells assessed as accumulation at G0/G1 phase at 10 uM by flow cytometry; format: functional
[11] = system: HeLa; assay: Growth inhibition of human HeLa cells after 72 hrs by trypan blue assay; format: functional, cell-based
[12] = system: OVCAR-3; assay: Cell cycle arrest in human OVCAR-3 cells assessed as accumulation at S phase at 10 uM by flow cytometry; format: functional
[13] = system: OVCAR-3; assay: Cell cycle arrest in human OVCAR-3 cells assessed as accumulation at subG0 phase at 1 uM by flow cytometry; format: functional
[14] = system: OVCAR-3; assay: Cell cycle arrest in human OVCAR-3 cells assessed as accumulation at G0/G1 phase at 5 uM by flow cytometry; format: functional
[15] = system: OVCAR-3; assay: Growth inhibition of human OVCAR-3 cells after 72 hrs by trypan blue assay; format: functional, cell-based; conditions: OVCAR-3, 72 h
[16] = system: OVCAR-3; assay: Cell cycle arrest in human OVCAR-3 cells assessed as accumulation at G0/G1 phase at 1 uM by flow cytometry; format: functional
[17] = system: OVCAR-3; assay: Cell cycle arrest in human OVCAR-3 cells assessed as accumulation at S phase at 1 uM by flow cytometry; format: functional
[18] = system: OVCAR-3; assay: Cell cycle arrest in human OVCAR-3 cells assessed as accumulation at subG0 phase at 10 uM by flow cytometry; format: functional
[19] = system: OVCAR-3; assay: Cell cycle arrest in human OVCAR-3 cells assessed as accumulation at subG0 phase at 16 uM by flow cytometry; format: functional
[20] = system: OVCAR-3; assay: Cell cycle arrest in human OVCAR-3 cells assessed as accumulation at G0/G1 phase at 16 uM by flow cytometry; format: functional
[21] = system: OVCAR-3; assay: Cell cycle arrest in human OVCAR-3 cells assessed as accumulation at G2/M phase at 16 uM by flow cytometry; format: functional
[22] = system: OVCAR-3; assay: Cell cycle arrest in human OVCAR-3 cells assessed as accumulation at S phase at 16 uM by flow cytometry; format: functional

Sequence of DNA topoisomerase 2-alpha (Homo sapiens) (P11388 whole entry): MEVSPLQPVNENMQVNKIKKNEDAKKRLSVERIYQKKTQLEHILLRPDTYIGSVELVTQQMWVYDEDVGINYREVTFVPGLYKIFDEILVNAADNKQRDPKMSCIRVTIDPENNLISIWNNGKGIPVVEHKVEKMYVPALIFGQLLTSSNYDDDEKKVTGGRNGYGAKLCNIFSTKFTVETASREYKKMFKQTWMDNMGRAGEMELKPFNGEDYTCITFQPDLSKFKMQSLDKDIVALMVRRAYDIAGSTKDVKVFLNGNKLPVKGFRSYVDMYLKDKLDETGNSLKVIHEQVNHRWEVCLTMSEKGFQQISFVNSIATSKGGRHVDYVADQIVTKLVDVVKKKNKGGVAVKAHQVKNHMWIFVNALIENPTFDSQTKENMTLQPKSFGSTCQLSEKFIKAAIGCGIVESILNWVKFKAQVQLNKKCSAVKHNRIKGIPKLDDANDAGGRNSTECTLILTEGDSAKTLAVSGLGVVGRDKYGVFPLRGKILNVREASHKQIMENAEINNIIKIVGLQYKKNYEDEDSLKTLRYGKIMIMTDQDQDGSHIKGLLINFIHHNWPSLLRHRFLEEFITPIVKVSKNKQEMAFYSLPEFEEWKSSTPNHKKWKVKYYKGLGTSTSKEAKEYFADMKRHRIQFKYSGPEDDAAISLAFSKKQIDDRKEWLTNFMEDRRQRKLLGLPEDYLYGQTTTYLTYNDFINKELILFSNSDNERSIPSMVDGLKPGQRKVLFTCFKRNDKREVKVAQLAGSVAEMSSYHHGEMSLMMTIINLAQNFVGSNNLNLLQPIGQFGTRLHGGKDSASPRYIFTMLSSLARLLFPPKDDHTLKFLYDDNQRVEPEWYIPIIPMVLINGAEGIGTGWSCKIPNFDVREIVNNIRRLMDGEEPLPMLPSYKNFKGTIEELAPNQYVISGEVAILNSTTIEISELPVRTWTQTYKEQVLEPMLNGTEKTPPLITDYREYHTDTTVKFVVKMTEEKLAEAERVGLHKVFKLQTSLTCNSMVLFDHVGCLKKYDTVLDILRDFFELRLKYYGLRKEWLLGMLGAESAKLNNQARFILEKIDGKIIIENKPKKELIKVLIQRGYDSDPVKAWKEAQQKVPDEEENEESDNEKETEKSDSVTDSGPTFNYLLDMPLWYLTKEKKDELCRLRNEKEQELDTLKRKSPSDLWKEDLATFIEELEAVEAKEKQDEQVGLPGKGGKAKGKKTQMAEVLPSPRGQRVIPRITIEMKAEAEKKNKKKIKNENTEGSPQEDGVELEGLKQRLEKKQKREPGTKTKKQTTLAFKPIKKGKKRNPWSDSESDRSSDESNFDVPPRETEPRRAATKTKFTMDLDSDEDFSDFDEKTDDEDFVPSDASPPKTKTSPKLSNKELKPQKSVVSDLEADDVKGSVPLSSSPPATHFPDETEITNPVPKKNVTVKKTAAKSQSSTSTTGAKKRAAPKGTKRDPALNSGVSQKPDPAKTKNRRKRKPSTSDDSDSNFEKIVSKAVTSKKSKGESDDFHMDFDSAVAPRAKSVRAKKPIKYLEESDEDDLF

CC(=O)c1ccc(Nc2ccnc3ccc4[nH]ccc4c23)cc1.Cl
Activity [1]: 63.7% | Activity [2]: 4.3% | Activity [3]: 31.4% | Activity [4]: Dose-dependent effect | IC50 [5]: 500 nM | Activity [6]: Active | Activity [7]: 57.8% | IC50 [8]: 590 nM | Activity [9]: 13.6% | Activity [10]: 24.5% | IC50 [11]: 3400 nM | Activity [12]: 11.6% | Activity [13]: 7.6% | Activity [14]: 24.7% | IC50 [15]: 530 nM | Activity [16]: 51.9% | Activity [17]: 9.4% | Activity [18]: 0.5%

COc1cc(NS(C)(=O)=O)ccc1Nc1c2ccccc2nc2ccccc12 [AMSACRINE]
Activity [19]: 1.8% | Activity [20]: 44.7% | Activity [21]: 41.3% | Activity [22]: 12.7%

CC[C@]1(O)C[C@H]2CN(CCc3c([nH]c4ccccc34)[C@@](C(=O)OC)(c3cc4c(cc3OC)N(C=O)[C@H]3[C@@](O)(C(=O)OC)[C@H](OC(C)=O)[C@]5(CC)C=CCN6CC[C@]43[C@@H]65)C2)C1 [VINCRISTINE]
Activity [3]: 45.2% | Activity [13]: 0.5% | Activity [16]: 46.8% | Activity [17]: 7.9%
